Results reported in patent US9238026B2, “Inhibitors of viral replication, their process of preparation and their therapeutical uses” (priority 2011, dated 2016).

tested on: NL4-3 strain of HIV-1; experiment: microbe, parasite or virus in culture; assay type: cell-based; conditions: Human immunodeficiency virus 1, NL43, 120 h; concentration leading to 50% of cyto-protection; MT4 cells infected with NL4.3 virus; 5 days incubation; CellTiter-Glo; read-out: EC50
Experimental: The antiviral activity, particularly against HIV, of compounds according to the invention is evaluated by the protocol described below.
Preparation of Virus stock of the NL4-3 strain of HIV-1
The virus was prepared as described in Lopez et al (Lopez et al, Proc Natl Acad Sci USA., 2006, 103(40):14947-52, by transfecting 2×10^6 293T cells (CRL-1573, ATCC) with following modifications: 6 μg of NL4-3 proviral DNA molecular clone were mixed with Fugene 6 transfection reagent from Roche, and used according to manufacturer's instructions. Forty eight hours later, transfected cell supernatants were harvested, filtered through 0.45-μm-pore-size filters, quantified for HIV-1 p24 antigen by using a Innotest HIV antigen mAb assay (Ingen) according to manufacturer's instructions, and used in infection experiments.
Serial dilutions of compounds to be tested were prepared in complete RPMI medium from 10 mM DMSO stock solutions, and distributed in a volume of 20 μl in 96 well Falcon 353072 Microtest™ tissue culture plate, in order to get 0.5% DMSO final concentration in each well, after the addition of infected cells. Control wells contained also 0.5% DMSO final concentration but no compound.
MT4 cells (from the NIH AIDS Research and Reference Reagent Program) in RPMI complete medium were counted (10×10^6 cells per well in Falcon 353047 Multiwell™ 24 well) and infected for 2 hours at 37°, at a multiplicity of infection (moi) of 0.0001-0.00001. Cells were then centrifuged 3 min at 3000 rpm, and washed two times in 1 ml PBS to remove viruses that have not entered in cells. Infected cells were resuspended in complete RPMI at 1.25×10^6 cells/ml, and […] of infected cells were distributed in each well containing compounds to be tested or control wells. The plates were then incubated at 37° for 5 days.
Assay used to measure the inhibition of HIV replication by the compounds
(according to Gregg S. Jones et al., Antimicrobial Agents and Chemotherapy, 2009, 53 (3): 1194-1203).
After 5 days of incubation, 50 μl of CellTiter-Glo reagent (Promega Biosciences, Inc., Madison Wis., USA) were added to each well. Cell lysis was carried out at room temperature during 10 min, 150 μl of lysates were transferred in Packard Optiplate 96 well, and luminescence was read on a Fluoroskan (Thermo Scientific).
The EC50, or effective concentration 50, is the concentration of compound leading to 50% of cyto-protection in a Cell-Titer-Glo® viability assay based on MT4 cells infected with NL4.3 virus.

SMILES	EC50 [µM]
Cc1sc(C)c(C(OC(C)(C)C)C(=O)O)c1-c1ccc2c(c1)CCCO2 (stereo not shown) [Example 17, 2-(tert-butoxy)-2-[4-(3,4-dihydro-2H-1-benzopyran-6-yl)-2,5-dimethylthiophen-3-yl]acetic acid]	26
CC1=C(c2ccc3c(c2)CCCO3)C(C(OC(C)(C)C)C(=O)O)=C(C)S1(=O)=O (stereo not shown) [Example 18, (tert-butoxy)[4-(3,4-dihydro-2H-1-benzopyran-6-yl)-2,5-dimethyl-1,1-dioxo-1λ^6-thiophen-3-yl]acetic acid]	34
Cc1cccc2sc(C(OC(C)(C)C)C(=O)O)c(-c3ccc4c(c3)CCCO4)c12 (stereo not shown) [Example 23, 2-(tert-butoxy)-2-[3-(3,4-dihydro-2H-1-benzopyran-6-yl)-4-methyl-1-benzothiophen-2-yl]acetic acid]	23
Cc1cccc2c1C(c1ccc3c(c1)CCCO3)=C(C(OC(C)(C)C)C(=O)O)S2(=O)=O (stereo not shown) [Example 24, 2-(tert-butoxy)-2-[3-(3,4-dihydro-2H-1-benzopyran-6-yl)-4-methyl-1,1-dioxo-1λ^6-benzothiophen-2-yl]acetic acid]	11
Cc1sc(C)c(C(OC(C)(C)C)C(=O)O)c1C1=CCCCC1 (stereo not shown) [Example 29, 2-(tert-butoxy)-2-[4-(cyclohex-1-en-1-yl)-2,5-dimethylthiophen-3-yl]acetic acid]	33
Cc1sc(C)c(C(OC(C)(C)C)C(=O)O)c1C1=CCCCCC1 (stereo not shown) [Example 31, 2-(tert-butoxy)-2-[4-(cyclohept-1-en-1-yl)-2,5-dimethylthiophen-3-yl]acetic acid]	29
Cc1sc(C)c(C(SC(C)(C)C)C(=O)O)c1-c1ccc2c(c1)CCCO2 (stereo not shown) [Example 32, 2-(tert-butylsulfanyl)-2-[4-(3,4-dihydro-2H-1-benzopyran-6-yl)-2,5-dimethylthiophen-3-yl]acetic acid]	26
Cc1sc(C)c(C(OC(C)(C)C)C(=O)O)c1-c1ccc2c(c1)CCCC2 (stereo not shown) [Example 39, 2-(tert-butoxy)-2-[2,5-dimethyl-4-(5,6,7,8-tetrahydronaphthalen-2-yl)thiophen-3-yl]acetic acid]	41
Cc1sc(Cl)c(-c2ccc3c(c2)CCCO3)c1C(OC(C)(C)C)C(=O)O (stereo not shown) [Example 44, 2-(tert-butoxy)-2-[5-chloro-4-(3,4-dihydro-2H-1-benzopyran-6-yl)-2-methylthiophen-3-yl]acetic acid]	16
Cc1sc(C)c(C(OC(C)(C)C)C(=O)O)c1-c1ccc(Cl)cc1 (stereo not shown) [Example 50, tert-butoxy-[4-(4-chloro-phenyl)-2,5-dimethyl-thiophen-3-yl]-acetic acid]	44
Cc1sc(C)c(C(OC(C)(C)C)C(=O)O)c1-c1ccccc1Cl (stereo not shown) [Example 51, tert-butoxy-[4-(2-chloro-phenyl)-2,5-dimethyl-thiophen-3-yl]-acetic acid]	41
CC(C)(C)OC(C(=O)O)c1c(C(F)(F)F)nn(C2CCCCC2)c1-c1ccc2c(c1)CCCO2 (stereo not shown) [Example 54, 2-(tert-butoxy)-2-[1-cyclohexyl-5-(3,4-dihydro-2H-1-benzopyran-6-yl)-3-(trifluoromethyl)-1H-pyrazol-4-yl]acetic acid]	2.2

same assay, conditions: Human immunodeficiency virus 1, NL43, MT4, 120 h

SMILES	EC50 [µM]
Cc1sc(C)c(C(OC(C)(C)C)C(=O)O)c1C1=CCC(C)(C)CC1 (stereo not shown) [Example 52, tert-butoxy-[4-(4,4-dimethyl-cyclohex-1-enyl)-2,5-dimethyl-thiophen-3-yl]-acetic acid]	33
